What all share (assay type): cell-based
Assay [1] deals with human erythroleukemia (K562) cell line. The experiment in a line: MTS antiproliferative (cytotoxicity) assay, K562. The conditions noted are these: for SI (selectivity index), K562: Vero as reference cell line. On the procedure:
(§1) The cytotoxicity of synthesized 3-azaspiro[bicyclo[3.1.0]hexane-2,5′-pyrimidines] 4 against human erythroleukemia (K562), cervical carcinoma (HeLa), and T lymphocyte (Jurkat), as well as mouse colon carcinoma (CT26) and African green monkey kidney epithelial (Vero) cell lines as reference, was evaluated in vitro by the standard MTS assay for 24 and 72 h.
(§2) All the cell lines (human cervical carcinoma (HeLa), erythroleukemia (K-562), and T lymphocyte (Jurkat) as well as mouse colon carcinoma (CT26) and African green monkey kidney epithelial (Vero)) were obtained from the cell repository “Vertebrate cell culture collection” (supported by the Ministry of Science and Higher Education of the Russian Federation, agreement №075-15-2021-683, Institute of Cytology, Russian Academy of Sciences, Saint Petersburg, Russia). HeLa, Jurkat, and Vero cells were cultured in DMEM (HyClone, South Logan, UT, USA) supplemented with 10% (v/v) fetal bovine serum (Hyclone, GE Healthcare Life Sciences, Logan, UT, USA), and gentamicin (Sigma-Aldrich, St. Louis, MO, USA) at 37 °C in a humidified atmosphere with 5% CO2. K-562 and CT26 cells were grown at RPMI medium (Hyclone, GE Healthcare Life Sciences, Logan, UT, USA), with the same supplements and conditions.
(§3) To evaluate the in vitro toxicity of compounds synthesized, cells were seeded into 96-well plates at a density of 5 × 10^3 cells per well. On the next day, tested compounds were added to the wells at concentrations ranging from […], followed by incubation for 1 and 3 days. Cell proliferation was determined by adding 20 μL of MTS reagent (BioVision, Milpitas, CA, USA) stock solution per well. Each plate was incubated for 2 h at 37 °C in a humidified, 5% CO2 atmosphere. The plates were then read at 495 nm using plate spectrophotometer (Multiskan GO, Thermo Fisher Scientific, Waltham, MA, USA). All samples were measured in triplicates.

In assay [2] the test system is mouse colon carcinoma (CT26) cell line. The experiment in a line: MTS antiproliferative (cytotoxicity) assay, CT26. The conditions noted are these: for SI (selectivity index), CT26: Vero as reference cell line. The procedure: as §1, §2, §3
For assay [3], the system named is K562, Jurkat, HeLa, CT26 and Vero cell lines. The experiment in a line: MTS antiproliferative screening, all tested cell lines. The conditions noted are these: compared with phenyl substituted adducts. The procedure: The cytotoxicity of synthesized 3-azaspiro[bicyclo[3.1.0]hexane-2,5′-pyrimidines] 4 against human erythroleukemia (K562), cervical carcinoma (HeLa), and T lymphocyte (Jurkat), as well as mouse colon carcinoma (CT26) and African green monkey kidney epithelial (Vero) cell lines as reference, was evaluated in vitro by the standard MTS assay for 24 and 72 h. The results are presented in Figure 1, Figure 2, Figure 3, Figure 4 and Figure 5 (data on all, tested on K562, HeLa, and CT26 cell lines’ compounds, are given at SI, Figures S1–S3). […] Replacement of the phenyl group by either the carboxymethyl or N-isopropylcarbamoyl group has led to a significant decrease in the activity of spiro-fused cycloadducts comprising azabicyclo[3.1.0]hexane and alloxane moieties. […]
To evaluate the in vitro toxicity of compounds synthesized, cells were seeded into 96-well plates at a density of 5 × 10^3 cells per well. […] Cell proliferation was determined by adding 20 μL of MTS reagent (BioVision, Milpitas, CA, USA) stock solution per well. […] The plates were then read at 495 nm using plate spectrophotometer (Multiskan GO, Thermo Fisher Scientific, Waltham, MA, USA). All samples were measured in triplicates.

Assay [4] deals with human T lymphocyte (Jurkat) cell line. In words: MTS antiproliferative (cytotoxicity) assay, Jurkat. The conditions noted are these: for IC50: Homo sapiens, MTS. The procedure: The cytotoxicity of synthesized 3-azaspiro[bicyclo[3.1.0]hexane-2,5′-pyrimidines] 4 against human erythroleukemia (K562), cervical carcinoma (HeLa), and T lymphocyte (Jurkat), as well as mouse colon carcinoma (CT26) and African green monkey kidney epithelial (Vero) cell lines as reference, was evaluated in vitro by the standard MTS assay for 24 and 72 h. The results are presented in Figure 1, Figure 2, Figure 3, Figure 4 and Figure 5 (data on all, tested on K562, HeLa, and CT26 cell lines’ compounds, are given at SI, Figures S1–S3). […] Replacement of the phenyl group by either the carboxymethyl or N-isopropylcarbamoyl group has led to a significant decrease in the activity of spiro-fused cycloadducts comprising azabicyclo[3.1.0]hexane and alloxane moieties.
as §2, §3

For assay [5], the system named is human cervical carcinoma (HeLa) cell line. In words: MTS antiproliferative (cytotoxicity) assay, HeLa. The conditions noted are these: for SI (selectivity index), HeLa: Vero as reference cell line. On the procedure: as §1, §2, §3
Assay [6] relates to African green monkey kidney epithelial (Vero) cell line. In words: MTS antiproliferative (cytotoxicity) assay, Vero (reference). The procedure: as §1, §2, §3
[7] abbreviates: Homo sapiens, K562, 24 h, read-out: IC50, K562, 24 h.
[8] abbreviates: Homo sapiens, K562, 72 h, read-out: IC50, K562, 72 h.
The mark [9] stands for this setting: Mus musculus, CT26, 24 h, read-out: IC50, CT26, 24 h.
Setting [10] is: Mus musculus, CT26, 72 h, read-out: IC50, CT26, 72 h.
[11] abbreviates: Homo sapiens, HeLa, 24 h, read-out: IC50, HeLa, 24 h.
Setting [12] is: Homo sapiens, HeLa, 72 h, read-out: IC50, HeLa, 72 h.
Where [13] appears, read: Chlorocebus sabaeus, Vero, 24 h, read-out: IC50, Vero, 24 h.
The mark [14] stands for this setting: Chlorocebus sabaeus, Vero, 72 h, read-out: IC50, Vero, 72 h.

Consider four compounds from paper PMC9506420, “Biological Evaluation of 3-Azaspiro[Bicyclo[3.1.0]Hexane-2,5′-Pyrimidines] as Potential Antitumor Agents” (International Journal of Molecular Sciences, 2022).

Read-outs that look alike come from different tables or passages of the source.

With `O=C1NC(=O)C2(NC[C@@]3(c4ccccc4)[C@H](c4ccccc4)[C@@]23c2ccccc2)C(=O)N1` [Compound 4a], the IC50 was found to be 47 ± 8 µM in assay [1] (setting [7]); 14 ± 1 µM in assay [1] (setting [8]); 64 ± 7 µM in assay [2] (setting [9]); 50 ± 7 µM in assay [2] (setting [10]); 24 ± 2 µM in assay [4] (24 h, read-out: IC50, Jurkat, 24 h); 19 ± 5 µM in assay [4] (72 h, read-out: IC50, Jurkat, 72 h). In addition, the concentration for half-maximal inhibition (IC50) came to 125 ± 18 µM in assay [5] (setting [11]), 70 ± 4 µM in assay [5] (setting [12]), 50 ± 14 µM in assay [6] (setting [13]) and 14 ± 2 µM in assay [6] (setting [14]). In addition, the “SI (selectivity index), K562” value in assay [1] (K562) was 1.0. For the same compound, the “SI (selectivity index), CT26” value in assay [2] (CT26) worked out at 0.3. Also, in assay [3], the “relative antiproliferative activity (structure-activity comparison)” value is reported as “less active”. Further, in assay [4] (Vero as reference cell line), the “SI (selectivity index), Jurkat” value is recorded as 0.8. In assay [5] (HeLa), the “SI (selectivity index), HeLa” value turned out to be 0.2.
On to `COc1cccc2c1C(=O)c1c(O)c3c(c(O)c1C2=O)C[C@@](O)(C(=O)CO)C[C@@H]3O[C@H]1C[C@H](N)[C@H](O)[C@H](C)O1` [Doxorubicin, reference compound], for which the 50% inhibitory concentration (IC50) in assay [1] (Homo sapiens, K562, MTS, 24 h, read-out: IC50, K562, 24 h) came out at 16 ± 3 µM; in assay [1] (Homo sapiens, K562, MTS, 72 h, read-out: IC50, K562, 72 h) it was 1.2 ± 0.3 µM; in assay [2] (Mus musculus, CT26, MTS, 24 h, read-out: IC50, CT26, 24 h), 19 ± 3 µM; in assay [2] (Mus musculus, CT26, MTS, 72 h, read-out: IC50, CT26, 72 h), 5.5 ± 0.3 µM; in assay [5] (Homo sapiens, HeLa, MTS, 24 h, read-out: IC50, HeLa, 24 h), 4 ± 1 µM; in assay [5] (Homo sapiens, HeLa, MTS, 72 h, read-out: IC50, HeLa, 72 h) it was 0.5 ± 0.1 µM. Also, the IC50 in assay [6] (Chlorocebus sabaeus, Vero, MTS, 24 h, read-out: IC50, Vero, 24 h) was determined as 13 ± 2 µM; in assay [6] (Chlorocebus sabaeus, Vero, MTS, 72 h, read-out: IC50, Vero, 72 h), 2.4 ± 0.4 µM. The “SI (selectivity index), K562” value in assay [1] (K562) is listed as 2.0. Also, in assay [2] (CT26), the “SI (selectivity index), CT26” value was 0.5. Also, the “SI (selectivity index), HeLa” value in assay [5] (HeLa) came to 4.8.
Take `C[C@@H]1NC2(C(=O)NC(=O)NC2=O)[C@]2(c3ccccc3)[C@@H](c3ccccc3)[C@]12c1ccccc1` [Compound 4b]: the IC50 is 25 ± 5 µM in assay [1] (setting [7]); 9 ± 2 µM in assay [1] (setting [8]); 30 ± 2 µM in assay [2] (setting [9]); 21 ± 2 µM in assay [2] (setting [10]); 34 ± 2 µM in assay [5] (setting [11]); 18 ± 2 µM in assay [5] (setting [12]). Also, the figures for the 50% inhibitory concentration (IC50) in assay [6] (setting [13]) and in assay [6] (setting [14]) were 55 ± 7 µM and 21 ± 2 µM, respectively. Moreover, the “SI (selectivity index), K562” value in assay [1] (K562) was 2.4. Moreover, in assay [2] (CT26), the “SI (selectivity index), CT26” value worked out at 1.0. The “SI (selectivity index), HeLa” value in assay [5] (HeLa) turned out to be 1.2.
With `N.N.[Cl][Pt][Cl]` [Cisplatin, reference compound], the “SI (selectivity index), K562” value in assay [1] (K562) came to 0.3. In addition, the IC50 in assay [1] (MTS, 24 h, read-out: IC50, K562, 24 h) was determined as 46 ± 8 µM; in assay [1] (MTS, 72 h, read-out: IC50, K562, 72 h), 14 ± 2 µM; in assay [2] (MTS, 24 h, read-out: IC50, CT26, 24 h), 24 ± 4 µM; in assay [2] (MTS, 72 h, read-out: IC50, CT26, 72 h), 5 ± 1 µM; in assay [5] (MTS, 24 h, read-out: IC50, HeLa, 24 h) it was 16 ± 4 µM; in assay [5] (MTS, 72 h, read-out: IC50, HeLa, 72 h) it was 6 ± 1 µM. The IC50 in assay [6] (MTS, 24 h, read-out: IC50, Vero, 24 h) amounted to 14 ± 1 µM; in assay [6] (MTS, 72 h, read-out: IC50, Vero, 72 h), 4 ± 1 µM. Also, in assay [2] (CT26), the “SI (selectivity index), CT26” value turned out to be 0.8. In addition, the “SI (selectivity index), HeLa” value in assay [5] (HeLa) was determined as 0.7.
